Test results as given in patent publication US10738028B2, “Spiro three-membered ring, spiro five-membered ring peptide deformylase inhibitor and use thereof in antibacteria and anti-tumor” (priority 2016, dated 2020).
In brackets after ≈: the same amount, converted by molar mass.

Columns and labels:
[1] = test system: Enterococcus faecalis (EFA); test: MIC, two-fold agar dilution (CLSI), clinical isolates; assay type: cell-based
How it was run: (§1)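 MIC values come from two-fold agar dilution run per CLSI antimicrobial susceptibility testing procedure.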

[2] = test system: Escherichia coli (including ESBLs, non-ESBLs); test: as above; assay type: cell-based
How it was run: as §1

[3] = test system: methicillin-resistant Staphylococcus aureus (MRSA); test: as above; assay type: cell-based
How it was run: as §1

[4] = test system: methicillin-resistant Staphylococcus epidermidis (MRSE); test: as above; assay type: cell-based
How it was run: as §1

[5] = test system: methicillin-sensitive Staphylococcus aureus (MSSA); test: as above; assay type: cell-based
How it was run: as §1

[6] = test system: methicillin-sensitive Staphylococcus epidermidis (MSSE); test: as above; assay type: cell-based
How it was run: as §1

[7] = test system: HCT-116 colorectal cancer cell line; test: CCK-8 proliferation inhibition; assay type: cell-based; settings: Homo sapiens, HCT-116, 72 h, concentration of 30 μM; 72 hours; CCK-8; read-out: HCT116 inhibition rate/%
How it was run: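 Proliferation over 72 hours of compound treatment was measured with CCK-8 against a 1‰ DMSO control.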

[8] = test system: methemoglobin in blood samples of three healthy volunteers; test: Toxicity on methemoglobin in vitro (whole blood with S9 and NADPH, absorbance at 630 nm); assay type: cell-based, human
Method: Because PDF inhibitors such as LBM415 and GSK1322322 can produce active species such as aromatic hydroxylamine and aromatic hydrazines in metabolic process, and cause human methemoglobinemia. To this end, continuous wavelength method was adopted in this invention to scan the absorption spectrum of blood samples in the wavelength range of 500 to 700 nm in the ultraviolet-visible spectrophotometer, and the contents of methemoglobin in blood samples of three healthy volunteers were calculated, after being effected by the synthesized compounds.
Experimental materials: Nicotinamide adenine dinucleotide phosphate (NADPH) reduction system: glucose-6-disodium phosphate, nicotinamide adenine dinucleoside phosphate and glucose-6-phosphate dehydrogenase (purchased from Shanghai yuanye Bio-Technology Co., Ltd) were added to 1 mL of phosphate buffer solution (PBS, pH 7.4), and the mixture was shaked in a shaker type water bath at 37° C. for 10 min, and then cooled to 0° C. Mixed human hepatocytes fraction S9 was purchased from Xenotech (20 mg S9 protein/1 mL suspension medium). Compounds were prepared to stock solution at a concentration of 50 mM, which was stored at −20° C. for use. Dapsone was used as positive control experimental reagent, which was purchased from Sigma Aldrich. 1% w/v triton X-100 was self-prepared. Blood samples were collected using Vacutainer tubes containing EDTA anticoagulants (BD, Franklin Lakes, USA), which were sampled from three healthy volunteers and used immediately after sampling.
Preparation of incubation system for blood samples and drugs: 250 μL of incubation system was consist of 220 μL of whole blood, 25 μL of S9 (final concentration: 2 mg S9 protein/mL incubation solution), 2.5 μL of NADPH form system (final concentration: 10 mM G-6-P, 1 mM NADP, 7.5 Units/mL) and 2.5 μL of stock solution of a compound (final concentration 500 μM). […] of incubation system was placed in an Eppendorf tube and incubated for 5 hours at 37° C. in water bath.
Determination of the content of methemoglobin: 60 μL of an incubated sample was taken and lysed with 3.0 mL of 1% Triton X-100. The content of methemoglobin (MetHb) was measured by an ultraviolet-visible spectrophotometer, with the Triton X-100 solution used as blank control. A sample was placed in a cuvette, 1 minute later, the spectrums of the sample in the wavelength range from 500 nm to 700 nm were recorded. The sample was added with 2 mg of potassium ferricyanide, and was allowed to stay stationary for 2 minutes for completely oxidization of ferrous iron in the sample, and standard spectrum of methemoglobin with saturated potassium ferricyanide. The percentage of methemoglobin formation (MetHb %) was obtained by the ratio of absorbance at 630 nm. MetHb %=(A′−AB′)/AM′, wherein, A′ was the total absorbance of the sample at 630 nm, AB′ was the base absorbance of the reduced blood in the sample at 630 nm, and AM′ was the absorbance of oxidized blood with saturated potassium ferricyanide at 630 nm.

[9] = MIC in vitro anti-bacterial experiments, Gram-positive bacteria; assay type: cell-based; settings: lowest MIC reached; read-out: minimum inhibitory concentration against Gram-positive bacteria
Excerpt: 1. The invention adopts the two-fold agar dilution method recommended by the operating procedure of antimicrobial susceptibility testing set by American Clinical and Laboratory Standards Institute (CLSI) to determine the Minimum Inhibitory Concentration (MIC) of the test samples against the tested strains.

[10] = strain printed MRSA 14-1 (second line of that name, r23, before MRSE 14-2)

Row | Compound | MIC (anti-bacterial activity) ([1]; strain EFA 14-1) [µg/mL] | MIC (anti-bacterial activity) ([1]; strain EFA 14-2) [µg/mL] | MIC (anti-bacterial activity) ([1]; strain EFA 14-3) [µg/mL] | MIC (anti-bacterial activity) ([1]; strain EFA 14-5) [µg/mL] | MIC (anti-bacterial activity) ([2]; strain ECO+ 14-1) [µg/mL] | MIC (anti-bacterial activity) ([2]; strain ECO+ 14-2) [µg/mL] | MIC (anti-bacterial activity) ([2]; strain ECO− 14-1) [µg/mL] | MIC (anti-bacterial activity) ([2]; strain ECO− 14-2) [µg/mL] | MIC (anti-bacterial activity) ([3]; strain MRSA 14-1) [µg/mL] | MIC (anti-bacterial activity) ([3]; strain MRSA 14-2) [µg/mL] | MIC (anti-bacterial activity) ([3]; strain MRSA 14-4) [µg/mL] | MIC (anti-bacterial activity) ([3]; strain MRSA 14-5) [µg/mL] | MIC (anti-bacterial activity) [3, 10] [µg/mL] | MIC (anti-bacterial activity) ([4]; strain MRSE 14-2) [µg/mL] | MIC (anti-bacterial activity) ([4]; strain MRSE 14-3) [µg/mL] | MIC (anti-bacterial activity) ([4]; strain MRSE 14-4) [µg/mL] | MIC (anti-bacterial activity) ([5]; strain MSSA 14-1) [µg/mL] | MIC (anti-bacterial activity) ([5]; strain MSSA 14-2) [µg/mL] | MIC (anti-bacterial activity) ([5]; strain MSSA 14-3) [µg/mL] | MIC (anti-bacterial activity) ([5]; strain MSSA 14-4) [µg/mL] | other results
1 | CCCC[C@H](CN(O)C=O)C(=O)N1CC2(CC2)C[C@H]1C(=O)Nc1ccc(F)c[n+]1[O-] [Example 2] | 0.25 (≈ 0.592 µM) | 0.5 (≈ 1.18 µM) | 0.5 (≈ 1.18 µM) | 128 (≈ 303 µM) | 1 (≈ 2.37 µM) | 64 (≈ 151 µM) | 128 (≈ 303 µM) | 64 (≈ 151 µM) | 0.25 (≈ 0.592 µM) | 0.25 (≈ 0.592 µM) | 0.125 (≈ 0.296 µM) | 0.125 (≈ 0.296 µM) | 0.03 (≈ 0.071 µM) | 0.06 (≈ 0.142 µM) | 0.06 (≈ 0.142 µM) | 0.125 (≈ 0.296 µM) | 0.125 (≈ 0.296 µM) | 0.125 (≈ 0.296 µM) | 0.125 (≈ 0.296 µM) | 0.125 (≈ 0.296 µM) | MIC ([3]; Staphylococcus aureus, MRSA, range over strains, read-out: minimum inhibitory concentration MIC against methicillin-resistant Staphylococcus (MRSA)): 0.125 to 0.25 µg/mL (≈ 0.296 to 0.592 µM); MIC (anti-bacterial activity) ([6]; strain MSSE 14-1): 0.03 µg/mL (≈ 0.071 µM); MIC (anti-bacterial activity) ([6]; strain MSSE 14-2): 0.125 µg/mL (≈ 0.296 µM); MIC (anti-bacterial activity) ([6]; strain MSSE 14-3): 0.03 µg/mL (≈ 0.071 µM); MIC (anti-bacterial activity) ([6]; strain MSSE 14-4): 0.03 µg/mL (≈ 0.071 µM); inhibition at 30 µM [7]: 2%; MetHb % (n = 3) ([8]; 500 μM compound, whole blood + S9 + NADPH, 5 hours at 37° C.): 3.32 ± 0.05%; probability of methemoglobin formation in blood compared with the control drugs LBM415 and GSK1322322 ([8]; toxicity test in vitro, in words): lower probability of methemoglobin formation in blood
2 | CCCC[C@H](CN(O)C=O)C(=O)N1CC2(CC2)C[C@H]1C(=O)Nc1ccc(C)c(Nc2nccc(-c3cccnc3)n2)c1 [Example 4] | 0.03 (≈ 0.0525 µM) | 0.015 (≈ 0.0262 µM) | 0.03 (≈ 0.0525 µM) | > 128 | 4 (≈ 7 µM) | > 128 | > 128 | > 128 | 0.015 (≈ 0.0262 µM) | 0.015 (≈ 0.0262 µM) | < 0.008 | < 0.008 | < 0.008 | < 0.008 | < 0.008 | < 0.008 | 0.015 (≈ 0.0262 µM) | 0.015 (≈ 0.0262 µM) | 0.015 (≈ 0.0262 µM) | 0.015 (≈ 0.0262 µM) | MIC (anti-bacterial activity) ([6]; strain MSSE 14-1): 0.015 µg/mL (≈ 0.0262 µM); MIC (anti-bacterial activity) ([6]; strain MSSE 14-2): < 0.008 µg/mL; MIC (anti-bacterial activity) ([6]; strain MSSE 14-3): < 0.008 µg/mL; MIC (anti-bacterial activity) ([6]; strain MSSE 14-4): 0.015 µg/mL (≈ 0.0262 µM); inhibition at 30 µM [7]: 18%; MIC [9]: < 0.008 µg/mL
